From patent US20190031599A1, “INDANE DERIVATIVES AS MGLUR7 MODULATORS” (Takeda Pharmaceutical Company Limited, priority 2016, published 2019) come the findings set out here.

What is called EC50 is the concentration that produces a half-maximal response. A higher EC50 goes with a less potent agent.

Where a name gives a salt, the structure may show the parent alone.

T1 sequence (Q14831 35-915): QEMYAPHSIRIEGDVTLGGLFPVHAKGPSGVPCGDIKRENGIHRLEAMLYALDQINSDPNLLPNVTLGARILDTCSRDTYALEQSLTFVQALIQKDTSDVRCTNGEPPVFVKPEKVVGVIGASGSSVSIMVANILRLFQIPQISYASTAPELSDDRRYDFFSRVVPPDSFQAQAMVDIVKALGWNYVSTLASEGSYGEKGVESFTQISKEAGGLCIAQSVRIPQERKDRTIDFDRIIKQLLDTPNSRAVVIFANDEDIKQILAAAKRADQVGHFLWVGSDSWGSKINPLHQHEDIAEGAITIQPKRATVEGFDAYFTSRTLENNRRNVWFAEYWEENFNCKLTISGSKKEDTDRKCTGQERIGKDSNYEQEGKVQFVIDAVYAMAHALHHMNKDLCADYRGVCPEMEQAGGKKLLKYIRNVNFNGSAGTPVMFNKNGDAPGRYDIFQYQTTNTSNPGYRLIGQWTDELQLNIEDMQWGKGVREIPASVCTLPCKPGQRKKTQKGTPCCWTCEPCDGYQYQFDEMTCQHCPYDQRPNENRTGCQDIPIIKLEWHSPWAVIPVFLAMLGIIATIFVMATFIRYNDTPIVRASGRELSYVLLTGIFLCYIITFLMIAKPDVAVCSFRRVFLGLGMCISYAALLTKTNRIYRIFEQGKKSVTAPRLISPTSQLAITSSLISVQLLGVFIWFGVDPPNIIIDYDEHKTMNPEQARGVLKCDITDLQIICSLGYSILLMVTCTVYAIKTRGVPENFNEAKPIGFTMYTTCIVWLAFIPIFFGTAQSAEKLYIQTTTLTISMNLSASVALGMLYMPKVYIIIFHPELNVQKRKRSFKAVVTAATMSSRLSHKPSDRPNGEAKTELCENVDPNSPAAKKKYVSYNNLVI

The assay addresses T1, human mGluR7 (Homo sapiens, UniProt Q14831).
T1 construct: expressed in transfected cells
Description: mGluR7 assay: CRE-directed luciferase reporter gene assay, reduction of forskolin stimulated cAMP production. It is filed as cell-based. The settings on record: stable CHO cell line expressing the CRE-luc reporter and human mGluR7 genes; decrease of forskolin stimulated luminescence; 10-point concentration-response, duplicate wells. The method in brief:
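Stable CHO cell line co-expressing human mGluR7 and a CRE-luciferase reporter; compounds preincubated 15 min at 37 °C, then forskolin added and incubated 5 h at 37 °C. 10-point half-log concentration-response in duplicate, normalised to forskolin-alone (max) and forskolin plus tool mGluR7 agonist (min) controls.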
In general terms: Reporter assays use an easily measured gene product as a stand-in for the process of interest.
`C[C@H](C(=O)NC1Cc2ccccc2C1NCC(F)F)c1ccc(F)cc1` (single isomer, unassigned) [Example 84] came in with an EC50 of 8 nM. Compound `N[C@H]1c2ccccc2C[C@@H]1NC(=O)C(c1ccc(F)cc1F)n1ccccc1=O` (single isomer, unassigned) [Example 51] returned an EC50 of 565 nM. The result for `COC1c2ccccc2CC1NC(=O)C(c1ccc(F)cc1F)N1CC(F)C1` (single isomer, unassigned) [Example 138, 2-(2,4-difluorophenyl)-2-(3-fluoroazetidin-1-yl)-N-(trans)-(1-methoxy-2,3-dihydro-1H-inden-2-yl)acetamide] reads 14 nM. As for `CC[C@H](C(=O)N[C@H]1Cc2ccccc2[C@@H]1NC(=O)OC(C)(C)C)c1ccc(F)cc1` [Example 42, tert-butyl N-[(1S,2S)-2-[(2S)-2-(4-fluorophenyl)butanamido]-2,3-dihydro-1H-inden-1-yl]carbamate], the figure is 13 nM; as for `COC1c2ccccc2CC1NC(=O)[C@@H](C)c1ccccc1` (single isomer, unassigned) [Example 9], 37 nM.

`CC1c2ccccc2CC1NC(=O)[C@@H](NC(=O)OC(C)(C)C)c1ccc(F)cc1` (stereo in doubt) [Example 71, tert-butyl N—[(S)-(4-fluorophenyl)[(trans)-(1-methyl-2,3-dihydro-1H-inden-2-yl)carbamoyl]methyl]carbamate] gave an EC50 of 2 nM. In turn, `COC1c2ccccc2CC1NC(=O)[C@@H](C)c1ccc(F)cc1F` (single isomer, unassigned) [Example 27] registered an EC50 of 21 nM. `CCOC1c2ccccc2CC1NC(=O)C(C)c1ccc(F)cc1F` (single isomer, unassigned) [Example 29] came in with an EC50 of 10 nM.

Compound `CO[C@H](C(=O)NC1Cc2ccccc2C1S(C)(=O)=O)c1ccccc1` (single isomer, unassigned) [Example 159] came in with an EC50 of 25 nM. This EC50 is about 2.5-fold higher than that of the compound before. Compound `COC1c2ccccc2C[C@@H]1NC(=O)[C@@H](NC(=O)C1CCOCC1)c1ccc(F)cc1` (stereo partly drawn) [Example 98, (2S)-2-(4-fluorophenyl)-N-(trans)-(1-methoxy-2,3-dihydro-1H-inden-2-yl)-2-[(oxan-4-yl)formamido]acetamide] registered a half-maximal effective concentration (EC50) of 4 nM. The result for `C[C@H](C(=O)N[C@H]1Cc2ccccc2[C@@H]1N)c1ccccc1` [Example 11, (2S)—N-[(1S,2S)-1-amino-2,3-dihydro-1H-inden-2-yl]-2-phenylpropanamide hydrochloride] reads 119 nM.

`N[C@H]1c2ccccc2C[C@@H]1NC(=O)C(c1ccc(F)cc1)C1CC1` (single isomer, unassigned) [Example 97]: the EC50 is 807 nM. With `C[C@H](C(=O)NC1Cc2ccccc2C1O)c1ccc(F)cc1` (single isomer, unassigned) [Example 63], the concentration for a half-maximal effect (EC50) is 767 nM.

As for `CS(=O)(=O)[C@@H]1c2ccccc2C[C@H]1NC(=O)C(OCC1CC1)c1ccc(F)cc1` (single isomer, unassigned) [Example 162, 2-(cyclopropylmethoxy)-2-(4-fluorophenyl)-N-(trans)-(1-methanesulfonyl-2,3-dihydro-1H-inden-2-yl)acetamide], the midpoint of the response, the EC50, lay at 2 nM.

As to `CS(=O)(=O)[C@@H]1c2ccccc2C[C@H]1NC(=O)C(OCC1CC1)c1ccc(F)cc1` (single isomer, unassigned) [Example 161, 2-(cyclopropylmethoxy)-2-(4-fluorophenyl)-N-(trans)-(1-methanesulfonyl-2,3-dihydro-1H-inden-2-yl)acetamide], the EC50 is 2 nM. This counts as single-digit nanomolar. The result for `C[C@H](C(=O)N[C@H]1Cc2ccccc2[C@@H]1NCC1CCC1)c1ccc(F)cc1F` [Example 90, (2S)—N-[(1S,2S)-1-[(cyclobutylmethyl)amino]-2,3-dihydro-1H-inden-2-yl]-2-(2,4-difluorophenyl)propanamide] reads 10 nM; that for `C[C@H](C(=O)NC1Cc2ccccc2C1N1CCCC1)c1ccc(F)cc1` (single isomer, unassigned) [Example 67], 16 nM; that for `CO[C@H](C(=O)NC1Cc2ccccc2C1S(C)(=O)=O)c1ccccc1` (stereo in doubt) [Example 149, (2S)—N-(trans)-(1-methanesulfonyl-2,3-dihydro-1H-inden-2-yl)-2-methoxy-2-phenylacetamide], 225 nM. On to `CCS(=O)(=O)C1c2ccccc2CC1NC(=O)[C@@H](OC)c1ccccc1` (stereo in doubt) [Example 150, (2S)—N-(trans)-(1-ethanesulfonyl-2,3-dihydro-1H-inden-2-yl)-2-methoxy-2-phenylacetamide], for which the EC50 stood at 156 nM. This EC50 and that of the compound before are within 1.5-fold of each other.

For the compound `COC1c2ccccc2CC1NC(=O)C(c1ccc(F)cc1F)n1ncccc1=O` (single isomer, unassigned) [Example 125, 2-(2,4-difluorophenyl)-N-(trans)-(1-methoxy-2,3-dihydro-1H-inden-2-yl)-2-(6-oxo-1,6-dihydropyridazin-1-yl)acetamide], the EC50 stood at 1070 nM. Compared with the last compound, the EC50 is about 6.9-fold higher.

Turning to `CC[C@H](C(=O)NC1Cc2ccccc2C1OC)c1ccc(F)cc1` (single isomer, unassigned) [Example 45], the EC50 came out at 17 nM. Against the preceding compound, the EC50 is about 63-fold lower. On to `C[C@H](C(=O)N[C@H]1Cc2ccccc2[C@@H]1NCC1CC1)c1ccc(F)cc1` [Example 47, (2S)—N-[(1S,2S)-1-[(cyclopropylmethyl)amino]-2,3-dihydro-1H-inden-2-yl]-2-(4-fluorophenyl)propanamide], for which the EC50 worked out at 21 nM. As for `COC1c2ccccc2CC1NC(=O)C(c1ccc(F)cc1F)n1ncccc1=O` (single isomer, unassigned) [Example 126, 2-(2,4-difluorophenyl)-N-(trans)-(1-methoxy-2,3-dihydro-1H-inden-2-yl)-2-(6-oxo-1,6-dihydropyridazin-1-yl)acetamide], the figure is 280 nM; as for `CCC(C(=O)N[C@H]1Cc2ccccc2[C@@H]1N)c1ccc(F)cc1F` (stereo partly drawn) [Example 14, N-[(1S,2S)-1-amino-2,3-dihydro-1H-inden-2-yl]-2-(2,4-difluorophenyl)butanamide hydrochloride], 139 nM; as for `CC(C)(C)OC(=O)N[C@H]1c2ccccc2C[C@@H]1NC(=O)C1(c2ccccc2)COC1` [Example 88, tert-butyl N-[(1S,2S)-2-(3-phenyloxetane-3-amido)-2,3-dihydro-1H-inden-1-yl]carbamate], 53 nM. `N[C@H]1c2ccccc2C[C@@H]1NC(=O)C1(c2ccccc2Cl)CC1` [Example 79, N-[(1S,2S)-1-amino-2,3-dihydro-1H-inden-2-yl]-1-(2-chlorophenyl)cyclopropane-1-carboxamide] returned an EC50 of 440 nM. This EC50 lies about 8.3-fold higher than the previous one. The result for `CC(F)(C(=O)N[C@H]1Cc2ccccc2[C@@H]1N)c1ccc(F)cc1` (single isomer, unassigned) [Example 76] reads 288 nM.
